Data as given in ChEMBL document CHEMBL1955793, “Integrated structure-based activity prediction model of benzothiadiazines on various genotypes of HCV NS5b polymerase (1a, 1b and 4) and its application in the discovery of new derivatives” (Bioorg Med Chem, 2012).
Activity calls are given as the source filed them. The calls are words filed in the database; no cut-off is given here.

Experiments:
[1] = test system: Hepatitis C virus; assay: Inhibition of Hepatitis C virus genotype 1b NS5B polymerase; design: species or system Hepatitis C virus subtype 1b
[2] = Inhibition of Hepatitis C virus genotype 1a NS5B polymerase; design: species or system Hepatitis C virus subtype 1a
[3] = test system: Hepatitis C virus; assay: Antiviral activity against Hepatitis C virus genotype 1b 1389 infected in human HuH5.2 cells assessed as inhibition of viral replication after 72 hrs by luciferase reporter gene assay; type: functional, organism-based, Hepacivirus hominis; details: genotype 1b 1389, Huh-5-2, 72 h
[4] = Cytotoxicity against human HuH5.2 cells after 1.5 hrs by MTS assay; type: cell-based, Huh-5-2
[5] = test system: Hepatitis C virus genotype 4; assay: Inhibition of Hepatitis C virus genotype 4 NS5B polymerase at 10 uM
[6] = test system: Hepatitis C virus; assay: Inhibition of Hepatitis C virus genotype 1b 1389 NS5B polymerase; design: species or system Hepatitis C virus subtype 1b

IC50 [1] [nM] | IC50 [2] [nM] | inhibition [5] | SMILES | also measured
305 | 3260 |  | O=c1c(C2=NS(=O)(=O)c3ccccc3N2)c(O)c2ccccc2n1NCc1ccco1 | 
 |  | inactive | CC(C)CCn1cc(C2=NS(=O)(=O)c3ccccc3N2)c2ccccc21 | EC50 [3]: 19700 nM; CC50 at 1.5 h [4]: > 50000 nM
 |  |  | Fc1ccccc1-c1nc2ccn(Cc3ccc(-c4ccc(C(F)(F)F)cc4C(F)(F)F)nn3)cc-2n1 [TEGOBUVIR] | EC50 [3]: 0.7 nM
135 | 411 |  | CC(C)(C)CCNn1c(=O)c(C2=NS(=O)(=O)c3ccccc3N2)c(O)c2ccccc21 | 
125 | 2330 |  | O=c1c(C2=NS(=O)(=O)c3ccccc3N2)c(O)c2ccccc2n1NCc1cccs1 | 
1450 | 4780 |  | O=c1c(C2=NS(=O)(=O)c3ccccc3N2)c(O)c2ccccc2n1NCc1ccc(Cl)s1 | 
150 | 747 |  | O=c1c(C2=NS(=O)(=O)c3ccccc3N2)c(O)c2ccccc2n1NC1CCCC1 | 
4690 | 10400 |  | O=c1c(C2=NS(=O)(=O)c3ccccc3N2)c(O)c2ccccc2n1NCc1ccc(Br)cc1 | 
101 | 941 |  | CC(C)CNn1c(=O)c(C2=NS(=O)(=O)c3ccccc3N2)c(O)c2ccccc21 | 
134 | 629 |  | CC(C)CCNn1c(=O)c(C2=NS(=O)(=O)c3ccccc3N2)c(O)c2ccccc21 | 
 |  | 60% | CC(C)CCn1cc(C2=NS(=O)(=O)c3cc(NS(C)(=O)=O)ccc3N2)c2ccccc21 | IC50 [6]: 1200 nM
640 | 6350 |  | CC(C)Nn1c(=O)c(C2=NS(=O)(=O)c3ccccc3N2)c(O)c2ccccc21 | 
100 | 928 |  | CCCCCNn1c(=O)c(C2=NS(=O)(=O)c3ccccc3N2)c(O)c2ccccc21 | 
 |  | inactive | CCCn1cc(C2=NS(=O)(=O)c3cc(I)ccc3N2)c2ccccc21 | 
 |  | inactive | CC(C)CCn1cc(C2=NS(=O)(=O)c3cc(Br)cnc3N2)c2ccccc21 | EC50 [3]: 7070 nM; CC50 at 1.5 h [4]: > 50000 nM
217 | 1040 |  | O=c1c(C2=NS(=O)(=O)c3ccccc3N2)c(O)c2ccccc2n1NC1CCCCCC1 | 
386 | 1890 |  | CCCC(CC)Nn1c(=O)c(C2=NS(=O)(=O)c3ccccc3N2)c(O)c2ccccc21 (centres undefined) | 
481 | 6120 |  | Cc1ccccc1CNn1c(=O)c(C2=NS(=O)(=O)c3ccccc3N2)c(O)c2ccccc21 | 
161 | 951 |  | CCCCNn1c(=O)c(C2=NS(=O)(=O)c3ccccc3N2)c(O)c2ccccc21 | 
439 | 4630 |  | O=c1c(C2=NS(=O)(=O)c3ccccc3N2)c(O)c2ccccc2n1NC1=CCOC=C1 | 
 |  | inactive | O=S1(=O)N=C(c2cn(Cc3ccccc3)c3ccc(Br)cc23)Nc2ccccc21 | 
108 | 278 |  | O=c1c(C2=NS(=O)(=O)c3ccccc3N2)c(O)c2ccccc2n1NC1CCC1 | 
 |  | inactive | C=CCn1cc(C2=NS(=O)(=O)c3cc(Br)cnc3N2)c2ccccc21 | EC50 [3]: 25400 nM; CC50 at 1.5 h [4]: > 50000 nM
1190 | 15000 |  | Cc1ccsc1CNn1c(=O)c(C2=NS(=O)(=O)c3ccccc3N2)c(O)c2ccccc21 | 
 |  |  | CCc1cc(CC[C@]2(C3CCCC3)CC(O)=C(Cc3nc4nc(C)cc(C)n4n3)C(=O)O2)cc(CC)n1 [FILIBUVIR] | EC50 [3]: 41 nM
 |  | inactive | CC(C)CCn1cc(C2=NS(=O)(=O)c3ccccc3N2)c2cc(Br)ccc21 | EC50 [3]: 18400 nM; CC50 at 1.5 h [4]: > 50000 nM
120 | 2460 |  | CCC(CC)Nn1c(=O)c(C2=NS(=O)(=O)c3ccccc3N2)c(O)c2ccccc21 | 

IC50 [1] [nM] | IC50 [2] [nM] | inhibition [5] | SMILES | also measured
674 | 35800 |  | O=c1c(C2=NS(=O)(=O)c3ccccc3N2)c(O)c2ccccc2n1NCc1nccs1 | 
 |  | inactive | CCCCn1cc(C2=NS(=O)(=O)c3ccccc3N2)c2ccccc21 | EC50 [3]: 8010 nM; CC50 at 1.5 h [4]: > 50000 nM
 |  | inactive | CC(C)n1cc(C2=NS(=O)(=O)c3cc(Br)cnc3N2)c2ccccc21 | 
1800 | 2240 |  | CCCC(CCC)Nn1c(=O)c(C2=NS(=O)(=O)c3ccccc3N2)c(O)c2ccccc21 | 
133 | 1550 |  | O=c1c(C2=NS(=O)(=O)c3ccccc3N2)c(O)c2ccccc2n1NCc1ccoc1 | 
 |  | inactive | C=CCn1cc(C2=NS(=O)(=O)c3ccccc3N2)c2ccccc21 | CC50 at 1.5 h [4]: > 50000 nM
 |  | inactive | CCCn1cc(C2=NS(=O)(=O)c3ccccc3N2)c2ccccc21 | EC50 [3]: 4150 nM; CC50 at 1.5 h [4]: > 50000 nM
 |  | 60% | CCCCn1cc(C2=NS(=O)(=O)c3cc(NS(C)(=O)=O)ccc3N2)c2cc(Br)ccc21 | EC50 [3]: 7700 nM; CC50 at 1.5 h [4]: 49200 nM
 |  | 60% | CS(=O)(=O)Nc1ccc2c(c1)S(=O)(=O)N=C(c1cn(Cc3ccccc3)c3ccccc13)N2 | 
 |  | inactive | CCCCn1cc(C2=NS(=O)(=O)c3ccccc3N2)c2cc(Br)ccc21 | EC50 [3]: 9900 nM; CC50 at 1.5 h [4]: 37200 nM
 |  | inactive | CC(C)n1cc(C2=NS(=O)(=O)c3ccccc3N2)c2ccccc21 | 
129 | 5090 |  | O=c1c(C2=NS(=O)(=O)c3ccccc3N2)c(O)c2ccccc2n1NCc1ccccc1 | 
1490 | 16500 |  | CC(Nn1c(=O)c(C2=NS(=O)(=O)c3ccccc3N2)c(O)c2ccccc21)c1ccccc1 (centres undefined) | 
 |  | inactive | O=S1(=O)N=C(c2cn(Cc3ccccc3)c3ccccc23)Nc2ccccc21 | EC50 [3]: 1860 nM; CC50 at 1.5 h [4]: > 50000 nM
212 | 8210 |  | Cc1cccc(CNn2c(=O)c(C3=NS(=O)(=O)c4ccccc4N3)c(O)c3ccccc32)c1 | 
1130 | 6400 |  | CCCC(Nn1c(=O)c(C2=NS(=O)(=O)c3ccccc3N2)c(O)c2ccccc21)C(C)C (centres undefined) | 
 |  | inactive | Cc1c(C2=NS(=O)(=O)c3ccccc3N2)c2ccccc2n1Cc1ccccc1 | 
 |  | inactive | O=S1(=O)N=C(c2cn(Cc3ccccc3)c3ccccc23)Nc2ncc(Br)cc21 | EC50 [3]: 20200 nM; CC50 at 1.5 h [4]: > 50000 nM
150 | 2530 |  | O=c1c(C2=NS(=O)(=O)c3ccccc3N2)c(O)c2ccccc2n1NCC1CCCCC1 | 
60 | 356 |  | O=c1c(C2=NS(=O)(=O)c3ccccc3N2)c(O)c2ccccc2n1NC1CCCCC1 | 
 |  | inactive | CCCCn1cc(C2=NS(=O)(=O)c3cc(Br)cnc3N2)c2ccccc21 | EC50 [3]: 5890 nM; CC50 at 1.5 h [4]: 21900 nM
 |  | inactive | CCCn1cc(C2=NS(=O)(=O)c3cc(Br)cnc3N2)c2ccccc21 | EC50 [3]: 2960 nM; CC50 at 1.5 h [4]: 16600 nM
145 | 285 |  | O=c1c(C2=NS(=O)(=O)c3ccccc3N2)c(O)c2ccccc2n1NCC1CC1 | 
 |  | inactive | CCCn1cc(C2=NS(=O)(=O)c3cc(Br)ccc3N2)c2ccccc21 | 
469 | 6720 |  | O=c1c(C2=NS(=O)(=O)c3ccccc3N2)c(O)c2ccccc2n1NCc1ccccc1Br | 
75 | 1040 |  | O=c1c(C2=NS(=O)(=O)c3ccccc3N2)c(O)c2ccccc2n1NCc1cccc(Br)c1 | 
